# Experimental data from patent US20230045421A1 (priority 2018, published 2023).
# Where two headings read alike, the source gives them in different places.
# Test system: HBV rcDNA
# Assay: HepDE19 assay with bDNA quantitation of HBV rcDNA
# Assay type: cell-based, hepatitis B virus
# Procedure, shortened: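 Compounds, top concentration 25 μM in 8-point duplicate series, were applied to Tet-free HepDE19 cultures for 7 days. Branched-DNA quantitation of HBV rcDNA against untreated wells gave EC50 and EC90 by 4-parameter fit. Viability (CC50) came from ATP luminescence on parallel plates incubated 4 days.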
# [1] = HepDE19 assay, inhibition of formation of relaxed circular DNA (rcDNA), bDNA quantitation, read-out: DE-19bDNA EC50
# [2] = read-out: DE-19bDNA EC50, HepDE19 assay, inhibition of formation of relaxed circular DNA (rcDNA), bDNA quantitation
# [3] = Hepatitis B virus, HepDE19, read-out: DE-19bDNA EC50 (μM), HepDE19 assay, inhibition of formation of relaxed circular DNA (rcDNA), bDNA quantitation
compound,measurement,setting,value
"CC(c1c[nH]c(=O)c2c(F)c(F)ccc12)N(C)C(=O)Nc1cccc(F)c1F (single isomer, unassigned) [Compound 459, 1-(1-(7,8-Difluoro-1-oxo-1,2-dihydroisoquinolin-4-yl)ethyl)-3-(2,3-difluorophenyl)-1-methylurea]",EC50,[1],0.2 µM
"CC(c1c[nH]c(=O)c2c(F)c(F)ccc12)N(C)C(=O)Nc1cccc(Cl)c1 (single isomer, unassigned) [Compound 460, 3-(3-Chlorophenyl)-1-(1-(7,8-difluoro-1-oxo-1,2-dihydroisoquinolin-4-yl)ethyl)-1-methylurea]",EC50,[2],0.61 µM
"CC(c1c[nH]c(=O)c2c(F)c(F)ccc12)N(C)C(=O)Nc1cccc(Cl)c1 (single isomer, unassigned) [Compound 461, 3-(3-Chlorophenyl)-1-(1-(7,8-difluoro-1-oxo-1,2-dihydroisoquinolin-4-yl)ethyl)-1-methylurea]",EC50,[2],0.011 µM
"CCN(C(=O)Nc1ccc(F)c(F)c1)C(C)c1c[nH]c(=O)c2c(F)c(F)ccc12 (single isomer, unassigned) [Compound 462, 1-(1-(7,8-Difluoro-1-oxo-1,2-dihydroisoquinolin-4-yl)ethyl)-3-(3,4-difluorophenyl)-1-ethylurea]",EC50,[1],0.92 µM
"CCN(C(=O)Nc1ccc(F)c(F)c1)C(C)c1c[nH]c(=O)c2c(F)c(F)ccc12 (single isomer, unassigned) [Compound 463, 1-(1-(7,8-Difluoro-1-oxo-1,2-dihydroisoquinolin-4-yl)ethyl)-3-(3,4-difluorophenyl)-1-ethylurea]",EC50,[1],0.008 µM
"CCN(C(=O)Nc1ccc(F)cc1)C(C)c1c[nH]c(=O)c2c(F)c(F)ccc12 (single isomer, unassigned) [Compound 464, 1-(1-(7,8-Difluoro-1-oxo-1,2-dihydroisoquinolin-4-yl)ethyl)-1-ethyl-3-(4-fluorophenyl)urea]",EC50,[1],2.9 µM
"CCN(C(=O)Nc1ccc(F)cc1)C(C)c1c[nH]c(=O)c2c(F)c(F)ccc12 (single isomer, unassigned) [Compound 465, 1-(1-(7,8-Difluoro-1-oxo-1,2-dihydroisoquinolin-4-yl)ethyl)-1-ethyl-3-(4-fluorophenyl)urea]",EC50,[1],0.019 µM
"CCN(C(=O)Nc1ccccc1)C(C)c1c[nH]c(=O)c2c(F)c(F)ccc12 (single isomer, unassigned) [Compound 466, 1-(1-(7,8-Difluoro-1-oxo-1,2-dihydroisoquinolin-4-yl)ethyl)-1-ethyl-3-phenylurea]",EC50,[2],8.5 µM
"CCN(C(=O)Nc1ccccc1)C(C)c1c[nH]c(=O)c2c(F)c(F)ccc12 (single isomer, unassigned) [Compound 467, 1-(1-(7,8-Difluoro-1-oxo-1,2-dihydroisoquinolin-4-yl)ethyl)-1-ethyl-3-phenylurea]",EC50,[2],0.066 µM
"CCN(C(=O)Nc1ccc(F)c(Cl)c1)C(C)c1c[nH]c(=O)c2c(F)c(F)ccc12 (single isomer, unassigned) [Compound 468, 3-(3-Chloro-4-fluorophenyl)-1-(1-(7,8-difluoro-1-oxo-1,2-dihydroisoquinolin-4-yl)ethyl)-1-ethylurea]",EC50,[1],1.1 µM
"CCN(C(=O)Nc1ccc(F)c(Cl)c1)C(C)c1c[nH]c(=O)c2c(F)c(F)ccc12 (single isomer, unassigned) [Compound 469, 3-(3-Chloro-4-fluorophenyl)-1-(1-(7,8-difluoro-1-oxo-1,2-dihydroisoquinolin-4-yl)ethyl)-1-ethylurea]",EC50,[1],0.005 µM
"CC(c1c[nH]c(=O)c2c(F)c(F)ccc12)N(C)C(=O)Nc1ccc(F)c(C#N)c1 (single isomer, unassigned) [Compound 470, 3-(3-Cyano-4-fluorophenyl)-1-(1-(7,8-difluoro-1-oxo-1,2-dihydroisoquinolin-4-yl)ethyl)-1-methylurea]",EC50,[1],2 µM
"CC(c1c[nH]c(=O)c2c(F)c(F)ccc12)N(C)C(=O)Nc1ccc(F)c(C#N)c1 (single isomer, unassigned) [Compound 471, 3-(3-Cyano-4-fluorophenyl)-1-(1-(7,8-difluoro-1-oxo-1,2-dihydroisoquinolin-4-yl)ethyl)-1-methylurea]",EC50,[1],0.02 µM
"[2H]C([2H])([2H])N(C(=O)Nc1ccc(F)c(Cl)c1)C(C)c1c[nH]c(=O)c2cc(F)c(F)cc12 (single isomer, unassigned) [Compound 472, 3-(3-Chloro-4-fluorophenyl)-1-(1-(6,7-difluoro-1-oxo-1,2-dihydroisoquinolin-4-yl)ethyl)-1-(methyl-d3)urea]",EC50,[3],0.007 µM
"[2H]C([2H])([2H])N(C(=O)Nc1ccc(F)c(Cl)c1)C(C)c1c[nH]c(=O)c2c(F)c(F)ccc12 (single isomer, unassigned) [Compound 473, 3-(3-Chloro-4-fluorophenyl)-1-(1-(7,8-difluoro-1-oxo-1,2-dihydroisoquinolin-4-yl)ethyl)-1-(methyl-d3)urea]",EC50,[3],0.01 µM
"[2H]C([2H])([2H])N(C(=O)Nc1cccc(Cl)c1)C(C)c1c[nH]c(=O)c2c(F)c(F)ccc12 (single isomer, unassigned) [Compound 474, 3-(3-Chlorophenyl)-1-(1-(7,8-difluoro-1-oxo-1,2-dihydroisoquinolin-4-yl)ethyl)-1-(methyl-d3)urea]",EC50,[3],0.015 µM
"CC(c1c[nH]c(=O)c2cc(F)c(F)cc12)N(C)C(=O)N[C@@H](C)c1ccccc1 (single isomer, unassigned) [Compound 475]",EC50,[3],6.1 µM
"CC(c1c[nH]c(=O)c2cc(F)c(F)cc12)N(C)C(=O)NCc1ccc(F)c(F)c1 (single isomer, unassigned) [Compound 476, 1-(1-(6,7-Difluoro-1-oxo-1,2-dihydroisoquinolin-4-yl)ethyl)-3-(3,4-difluorobenzyl)-1-methylurea]",EC50,[1],0.43 µM
"CC(c1c[nH]c(=O)c2cc(F)c(F)cc12)N(C)C(=O)NCc1ccc(F)c(F)c1 (single isomer, unassigned) [Compound 477, 1-(1-(6,7-Difluoro-1-oxo-1,2-dihydroisoquinolin-4-yl)ethyl)-3-(3,4-difluorobenzyl)-1-methylurea]",EC50,[1],10 µM
"CC(c1c[nH]c(=O)c2cc(F)c(F)cc12)N(C)C(=O)NCc1ccc(F)cc1 (single isomer, unassigned) [Compound 478, 1-(1-(6,7-Difluoro-1-oxo-1,2-dihydroisoquinolin-4-yl)ethyl)-3-(4-fluorobenzyl)-1-methylurea]",EC50,"Hepatitis B virus, HepDE19, HepDE19 assay, inhibition of formation of relaxed circular DNA (rcDNA), bDNA quantitation, read-out: DE-19bDNA EC50",1 µM
"CC(c1c[nH]c(=O)c2cc(F)c(F)cc12)N(C)C(=O)N[C@H](C)c1ccccc1 (single isomer, unassigned) [Compound 479]",EC50,[3],9.4 µM
"CC(c1c[nH]c(=O)c2cc(F)c(F)cc12)N(C)C(=O)NCc1cc(F)c(F)c(F)c1 (single isomer, unassigned) [Compound 481, 1-(1-(6,7-Difluoro-1-oxo-1,2-dihydroisoquinolin-4-yl)ethyl)-1-methyl-3-(3,4,5-trifluorobenzyl)urea]",EC50,[1],0.53 µM
"CC(c1c[nH]c(=O)c2cc(F)c(F)cc12)N(C)C(=O)NCc1cc(F)c(F)c(F)c1 (single isomer, unassigned) [Compound 482, 1-(1-(6,7-Difluoro-1-oxo-1,2-dihydroisoquinolin-4-yl)ethyl)-1-methyl-3-(3,4,5-trifluorobenzyl)urea]",EC50,[1],11 µM
"CC(c1c[nH]c(=O)c2cc(F)c(F)cc12)N(C)C(=O)NCc1ccc(F)c(Cl)c1 (single isomer, unassigned) [Compound 483, 3-(3-Chloro-4-fluorobenzyl)-1-(1-(6,7-difluoro-1-oxo-1,2-dihydroisoquinolin-4-yl)ethyl)-1-methylurea]",EC50,[1],0.27 µM
"CC(c1c[nH]c(=O)c2cc(F)c(F)cc12)N(C)C(=O)NCc1ccc(F)c(Cl)c1 (single isomer, unassigned) [Compound 484, 3-(3-Chloro-4-fluorobenzyl)-1-(1-(6,7-difluoro-1-oxo-1,2-dihydroisoquinolin-4-yl)ethyl)-1-methylurea]",EC50,[1],14 µM
"CC(c1c[nH]c(=O)c2cc(F)c(F)cc12)N(C)C(=O)Nc1ccc2cc[nH]c2c1 (single isomer, unassigned) [Compound 485, 1-(1-(6,7-Difluoro-1-oxo-1,2-dihydroisoquinolin-4-yl)ethyl)-3-(1H-indol-6-yl)-1-methylurea]",EC50,[1],9.9 µM
"CC(c1c[nH]c(=O)c2cc(F)c(F)cc12)N(C)C(=O)Nc1ccc2cc[nH]c2c1 (single isomer, unassigned) [Compound 486, 1-(1-(6,7-Difluoro-1-oxo-1,2-dihydroisoquinolin-4-yl)ethyl)-3-(1H-indol-6-yl)-1-methylurea]",EC50,[1],0.2 µM
"CC(c1c[nH]c(=O)c2c(F)c(F)ccc12)N(C)C(=O)N[C@@H](C)c1ccccc1 (single isomer, unassigned) [Compound 487]",EC50,[3],23 µM
"CC(c1c[nH]c(=O)c2c(F)c(F)ccc12)N(C)C(=O)N[C@H](C)c1ccccc1 (single isomer, unassigned) [Compound 488]",EC50,[3],9 µM
"CC(c1c[nH]c(=O)c2c(F)c(F)ccc12)N(C)C(=O)NCc1ccc(F)c(F)c1 (single isomer, unassigned) [Compound 489, 1-(1-(7,8-Difluoro-1-oxo-1,2-dihydroisoquinolin-4-yl)ethyl)-3-(3,4-difluorobenzyl)-1-methylurea]",EC50,[1],19 µM
"CC(c1c[nH]c(=O)c2c(F)c(F)ccc12)N(C)C(=O)NCc1ccc(F)c(F)c1 (single isomer, unassigned) [Compound 490, 1-(1-(7,8-Difluoro-1-oxo-1,2-dihydroisoquinolin-4-yl)ethyl)-3-(3,4-difluorobenzyl)-1-methylurea]",EC50,[1],0.78 µM
